# Test results taken from PubChem BioAssay (NCI).
#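 Results reflect a 48-hour exposure of cells in 96-well plates to compound at five concentrations. At the TGI there is no net growth.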
# Columns and labels:
# Experiment in all cases: NCI-60 cell line screen, 48 h
# [1] = tested on: TK-10 renal
# [2] = tested on: CCRF-CEM leukemia
# [3] = tested on: UACC-257 melanoma
# [4] = tested on: UO-31 renal
# [5] = tested on: UACC-62 melanoma
# [6] = tested on: MDA-N
# [7] = tested on: OVCAR-3 ovarian
# [8] = tested on: CAKI-1 renal
# [9] = tested on: OVCAR-5 ovarian
# [10] = tested on: HOP-62 NSCLC
# [11] = tested on: U251 CNS
# [12] = tested on: MDA-MB-435
# [13] = tested on: SF-295 CNS
# [14] = tested on: HCT-116 colon
# [15] = tested on: SNB-19 CNS
# [16] = tested on: NCI-H23 lung
# [17] = tested on: SK-MEL-28 melanoma
# [18] = tested on: MALME-3M melanoma
# [19] = tested on: HL-60(TB) leukemia
# [20] = tested on: PC-3 prostate
# [21] = tested on: OVCAR-4 ovarian
# [22] = tested on: NCI-H226 lung
# [23] = tested on: HS 578T breast
# [24] = tested on: T-47D breast
# [25] = tested on: HT29 colon
# [26] = tested on: SNB-75 CNS
# [27] = tested on: RPMI-8226 leukemia
# [28] = tested on: A498 renal
# [29] = tested on: HOP-92 NSCLC
# [30] = tested on: IGROV1 ovarian
# [31] = tested on: DU-145 prostate
# [32] = tested on: OVCAR-8 ovarian
# [33] = tested on: KM12 colon
# [34] = tested on: LOX IMVI melanoma
# [35] = tested on: NCI-H460 lung
# [36] = tested on: M14 melanoma
# [37] = tested on: SN12C renal
# [38] = tested on: RXF 393 renal
# [39] = tested on: ACHN renal
# [40] = tested on: HCT-15 colon
# [41] = tested on: SF-268 CNS
# [42] = tested on: SK-MEL-5 melanoma
# [43] = tested on: SW-620 colon
# [44] = tested on: MDA-MB-231 breast
# [45] = tested on: MCF7 breast
# [46] = tested on: K-562 leukemia
# [47] = tested on: EKVX NSCLC
# [48] = tested on: HCC-2998 colon
# [49] = tested on: NCI-H522 lung
# [50] = tested on: 786-0 renal
# [51] = tested on: A549 NSCLC
# [52] = tested on: NCI/ADR-RES ovarian
# [53] = tested on: SK-MEL-2 melanoma
# [54] = tested on: COLO 205 colon
# [55] = tested on: SK-OV-3 ovarian
# [56] = tested on: SR leukemia
# [57] = tested on: BT-549 breast
# [58] = tested on: SF-539 CNS
# [59] = tested on: MOLT-4 leukemia
smiles,measurement,setting,value
S=C1NCN2CCN(CC2)CNC(=S)C(=S)NCN2CCN(CC2)CNC1=S,TGI,[1],> 100 µM
same,TGI,[2],62.3 µM
same,TGI,[3],> 100 µM
same,TGI,[4],> 100 µM
same,TGI,[5],> 100 µM
same,TGI,[6],> 100 µM
same,TGI,[7],98.9 µM
same,TGI,[8],> 100 µM
same,TGI,[9],> 100 µM
same,TGI,[10],> 100 µM
same,TGI,[11],> 100 µM
same,TGI,[12],> 100 µM
same,TGI,[13],> 100 µM
same,TGI,[14],> 100 µM
same,TGI,[15],> 100 µM
same,TGI,[16],> 100 µM
same,TGI,[17],> 100 µM
same,TGI,[18],> 100 µM
same,TGI,[19],> 100 µM
same,TGI,[20],> 100 µM
same,TGI,[21],> 100 µM
same,TGI,[22],> 100 µM
same,TGI,[23],> 100 µM
same,TGI,[24],> 100 µM
same,TGI,[25],> 100 µM
same,TGI,[26],> 100 µM
same,TGI,[27],97.3 µM
same,TGI,[28],> 100 µM
same,TGI,[29],> 100 µM
same,TGI,[30],> 100 µM
same,TGI,[31],> 100 µM
same,TGI,[32],> 100 µM
same,TGI,[33],> 100 µM
same,TGI,[34],56.4 µM
same,TGI,[35],46.3 µM
same,TGI,[36],> 100 µM
same,TGI,[37],> 100 µM
same,TGI,[38],> 100 µM
same,TGI,[39],> 100 µM
same,TGI,[40],> 100 µM
same,TGI,[41],> 100 µM
same,TGI,[42],> 100 µM
same,TGI,[43],> 100 µM
same,TGI,[44],> 100 µM
same,TGI,[45],> 100 µM
same,TGI,[46],> 100 µM
same,TGI,[47],> 100 µM
same,TGI,[48],> 100 µM
same,TGI,[49],> 100 µM
same,TGI,[50],> 100 µM
same,TGI,[51],> 100 µM
same,TGI,[52],> 100 µM
same,TGI,[53],> 100 µM
same,TGI,[54],> 100 µM
same,TGI,[55],> 100 µM
same,TGI,[56],> 100 µM
same,TGI,[57],> 100 µM
COC(=O)C12CCC(C(F)(F)C1=O)C2(C)C (stereo not drawn),TGI,[1],> 100 µM
same,TGI,[3],> 100 µM
same,TGI,[4],> 100 µM
same,TGI,[5],> 100 µM
same,TGI,[6],> 100 µM
same,TGI,[7],> 100 µM
same,TGI,[8],> 100 µM
same,TGI,[9],> 100 µM
same,TGI,[10],> 100 µM
same,TGI,[11],> 100 µM
same,TGI,[12],> 100 µM
same,TGI,[13],> 100 µM
same,TGI,[14],> 100 µM
same,TGI,[15],> 100 µM
same,TGI,[16],> 100 µM
same,TGI,[17],> 100 µM
same,TGI,[18],> 100 µM
same,TGI,[19],> 100 µM
same,TGI,[20],> 100 µM
same,TGI,[21],> 100 µM
same,TGI,[22],> 100 µM
same,TGI,[23],> 100 µM
same,TGI,[24],> 100 µM
same,TGI,[25],> 100 µM
same,TGI,[26],> 100 µM
same,TGI,[58],> 100 µM
same,TGI,[27],> 100 µM
same,TGI,[28],> 100 µM
same,TGI,[29],> 100 µM
same,TGI,[30],> 100 µM
same,TGI,[31],> 100 µM
same,TGI,[32],> 100 µM
same,TGI,[33],> 100 µM
same,TGI,[34],> 100 µM
same,TGI,[35],> 100 µM
same,TGI,[36],> 100 µM
same,TGI,[59],> 100 µM
same,TGI,[37],> 100 µM
same,TGI,[38],> 100 µM
same,TGI,[39],> 100 µM
same,TGI,[40],> 100 µM
same,TGI,[41],> 100 µM
same,TGI,[42],> 100 µM
same,TGI,[43],> 100 µM
same,TGI,[44],> 100 µM
same,TGI,[45],> 100 µM
same,TGI,[48],> 100 µM
same,TGI,[49],> 100 µM
same,TGI,[50],> 100 µM
same,TGI,[51],> 100 µM
same,TGI,[52],> 100 µM
same,TGI,[53],> 100 µM
same,TGI,[54],> 100 µM
same,TGI,[55],> 100 µM
same,TGI,[56],> 100 µM
same,TGI,[57],> 100 µM
